Test results as given in patent US20100048462A1, “TRUNCATED PTH PEPTIDES WITH A CYCLIC CONFORMATION” (Zealand Pharma A/S, priority 2006, published 2010).
pEC50: −log10 of the molar value. Bridge positions count the residues as written; N and C are the ends. Square brackets hold non-standard residues; d marks the D form. Peptide text beside a SMILES is read from it. hArg = N=C(N)NCCCC[C@H](N)C(=O)O; Nle = CCCC[C@H](N)C(=O)O; Ac5c = NC1(C(=O)O)CCCC1; Dap = NC[C@H](N)C(=O)O; Aib = CC(C)(N)C(=O)O

What was measured:
Saos-2 PTH1R = biological target: T1, Saos-2 PTH1R (Homo sapiens, UniProt Q03431); assay: cAMP-efficacy assay in Saos-2 cells; assay type: cell-based; settings: for pEC50: cAMP, 100 μM IBMX, 37° C. 15 min, suffix of label = salt tested; for Emax ± SEM: relative effect to the control (SEQ ID NO: 32)
T1 construct: endogenous in cells; host or cells: Saos-2
T1 sequence (Q03431 27-593): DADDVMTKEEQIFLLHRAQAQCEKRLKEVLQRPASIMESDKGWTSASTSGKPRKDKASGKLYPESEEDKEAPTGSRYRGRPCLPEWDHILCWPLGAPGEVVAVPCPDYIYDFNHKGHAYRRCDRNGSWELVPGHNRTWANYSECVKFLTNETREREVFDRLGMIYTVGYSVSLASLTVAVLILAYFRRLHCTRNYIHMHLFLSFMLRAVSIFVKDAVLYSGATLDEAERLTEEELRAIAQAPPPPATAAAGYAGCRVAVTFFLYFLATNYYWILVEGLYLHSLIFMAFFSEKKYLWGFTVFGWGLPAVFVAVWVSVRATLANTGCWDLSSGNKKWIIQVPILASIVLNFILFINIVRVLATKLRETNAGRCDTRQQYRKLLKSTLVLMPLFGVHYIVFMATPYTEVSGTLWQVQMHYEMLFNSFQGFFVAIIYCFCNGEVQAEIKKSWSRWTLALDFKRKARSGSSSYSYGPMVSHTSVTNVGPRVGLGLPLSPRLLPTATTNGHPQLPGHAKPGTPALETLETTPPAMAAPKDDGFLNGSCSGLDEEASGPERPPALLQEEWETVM
In short: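 Saos-2 cells, grown two days after seeding at 50,000 cells/well, were exposed to peptide for 15 min at 37 °C in Tyrode's buffer with 0.1% BSA and 100 μM IBMX. After stopping with cold HCl, cAMP was measured by radioimmunoassay FlashPlate. EC50, pEC50, Hill slope and Emax came from a four-parameter sigmoidal fit.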

CYP2D6 = CYP2D6 (Homo sapiens, UniProt P10635); assay: CYP2D6 inhibition in pooled human liver microsomes; assay type: in vitro ADME; set-up: Pooled human liver microsomes (HLM, final concentration 0.05 mg protein/mL); tissue BD Biosciences 452161; host or cells: pooled human liver microsomes; settings: 10 μM compound, dextrorphan formation rate
Experimental: Stock solutions of the test compounds (1 mM) were prepared in 50% isopropanol or 20% DMSO. Pooled human liver microsomes (HLM, final concentration 0.05 mg protein/mL) were mixed with phosphate buffer (0.1 M potassium phosphate, pH 7.4), CYP2D6 substrate (dextrometrorphan, 5 μM final concentration) and test compound (10 μM), quinidine (0.5 μM) or vehicle (0.2% DMSO or 0.5% isopropanol). The mixture was preincubated for 5 min at 37° C. prior to initiation of the reaction addition of a NADPH regenerating mixture (Final concentration: 1.25 mM NADP^+, 3.3 mM Glucose-6-phosphate, 3.3 mM MgCL2 and 0.4 U/mL glucose-6-phosphat dehydrogenase). After 5 minutes the reaction was stopped by addition of 0.25 volume stop reagent (94% acetonitrile, 6% acetic acid). Each experiment was performed in duplicate or triplicate.
The quantification of CYP2D6 product (dextrorphan) was performed by LC/MS/MS. After centrifugation for 5 min at 10.000 g, 40 μL of the supernatant was injected onto a C8 RP-HPLC column (XterraMS, C8, […], 50×2.1 mm). Dextrorphan was eluted by a linear gradient from 0 to 90% acetonitrile in 0.1% formic acid over 4 min using a flow rate of 0.15 ml/min. The concentration of dextrorphan in the reaction mixture was estimated from the peak area of the MS/MS transition (m/z 258.1>199) using an external calibration curve (Table 8).
The CYP2D6 activity in HLM was calculated as the metabolite formation rate: […]
Where, v is the formation rate, [metabolite] is the detected concentration of dextrorphan (pmol/mL) at the time (t, min) and [protein] is the protein concentration (mg/mL) in the reaction mixture. The influence of the test compounds on the CYP2D6 activity was calculated as % of the activity measured when incubated with the vehicle. The effect of CYP2D6 inhibitor (quinidine) was included as inhibition control within each batch analysis. A reduction in CYP2D6 activity to less than 70% of the vehicle control was considered significant.

Chain of CYP2D6 (P10635 whole entry): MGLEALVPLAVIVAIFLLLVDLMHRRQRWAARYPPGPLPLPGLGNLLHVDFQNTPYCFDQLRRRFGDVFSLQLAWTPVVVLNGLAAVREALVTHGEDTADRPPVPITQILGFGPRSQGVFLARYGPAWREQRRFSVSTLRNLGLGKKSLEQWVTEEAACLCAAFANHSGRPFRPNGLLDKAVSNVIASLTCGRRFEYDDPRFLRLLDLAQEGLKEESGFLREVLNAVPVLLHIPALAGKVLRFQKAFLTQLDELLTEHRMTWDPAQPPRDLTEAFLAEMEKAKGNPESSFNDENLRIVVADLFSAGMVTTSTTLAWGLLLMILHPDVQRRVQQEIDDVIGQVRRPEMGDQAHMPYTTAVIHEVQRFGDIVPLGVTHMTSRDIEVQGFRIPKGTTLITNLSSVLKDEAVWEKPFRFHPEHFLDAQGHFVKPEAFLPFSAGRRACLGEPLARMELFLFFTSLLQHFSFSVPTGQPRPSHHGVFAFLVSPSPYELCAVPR

## CC[C@H](C)[C@H](NC(=O)[C@H](CCC(=O)O)NC(=O)C(C)(C)NC(=O)[C@@H](NC(=O)C1(N)CCCC1)C(C)C)C(=O)N[C@@H](CCC(N)=O)C(=O)N[C@@H](CC(C)C)C(=O)N[C@@H](CCSC)C(=O)N[C@@H](Cc1c[nH]cn1)C(=O)N[C@@H](CCC(N)=O)C(=O)N[C@@H](CCCCNC(=N)N)C(=O)N[C@@H](C)C(=O)N[C@H]1CSSC[C@@H](C(N)=O)NC(=O)[C@H](CC(N)=O)NC(=O)[C@H](CC(C)C)NC(=O)[C@H](Cc2c[nH]c3ccccc23)NC1=O [SEQ ID NO: 7, H-Ac5c-Val-Aib-Glu-Ile-Gln-Leu-Met-His-Gln-Har-Ala-Cys( )-Trp-Leu-Asn-Cys( )-NH2] (H-[Ac5c]V[Aib]EIQLMHQ[hArg]ACWLNC-NH2; disulfide 13-17)
Saos-2 PTH1R
  pEC50: 7.30
  Emax ± SEM: 1.2
CYP2D6
  CYP2D6 activity (% of vehicle): 85 % of vehicle

## CC[C@H](C)[C@H](NC(=O)[C@H](CCC(=O)O)NC(=O)C(C)(C)NC(=O)[C@@H](NC(=O)C1(N)CCCC1)C(C)C)C(=O)N[C@@H](CCC(N)=O)C(=O)N[C@@H](CC(C)C)C(=O)N[C@@H](CCSC)C(=O)N[C@@H](Cc1c[nH]cn1)C(=O)N[C@@H](CCC(N)=O)C(=O)N[C@@H](CCCCNC(=N)N)C(=O)N[C@@H](C)C(=O)N[C@H]1CCC(=O)NCCCC[C@@H](C(N)=O)NC(=O)[C@H](CC(N)=O)NC(=O)[C@H](CC(C)C)NC(=O)[C@H](Cc2c[nH]c3ccccc23)NC1=O [SEQ ID NO: 8, H-Ac5c-Val-Aib-Glu-Ile-Gln-Leu-Met-His-Gln-Har-Ala-Glu( )-Trp-Leu-Asn-Lys( )-NH2] (H-[Ac5c]V[Aib]EIQLMHQ[hArg]AEWLNK-NH2; lactam 13-17)
Saos-2 PTH1R
  pEC50: 7.94
  Emax ± SEM: 1.07 ± 0.02
CYP2D6
  CYP2D6 activity (% of vehicle): 99 % of vehicle

## CC[C@H](C)[C@H](NC(=O)[C@H](CCC(=O)O)NC(=O)C(C)(C)NC(=O)[C@@H](NC(=O)C1(N)CCCC1)C(C)C)C(=O)N[C@@H](CCC(N)=O)C(=O)N[C@@H](CC(C)C)C(=O)N[C@@H](CCSC)C(=O)N[C@@H](Cc1c[nH]cn1)C(=O)N[C@@H](CCC(N)=O)C(=O)N[C@@H](CCCCNC(=N)N)C(=O)N[C@@H](C)C(=O)N[C@H]1CCCCNC(=O)CC[C@@H](C(N)=O)NC(=O)[C@H](CC(N)=O)NC(=O)[C@H](CC(C)C)NC(=O)[C@H](Cc2c[nH]c3ccccc23)NC1=O [SEQ ID NO: 9, H-Ac5c-Val-Aib-Glu-Ile-Gln-Leu-Met-His-Gln-Har-Ala-Lys( )-Trp-Leu-Asn-Glu( )-NH2] (H-[Ac5c]V[Aib]EIQLMHQ[hArg]AKWLNE-NH2; lactam 13-17)
Saos-2 PTH1R
  pEC50: 7.85
  Emax ± SEM: 1.03 ± 0.03
CYP2D6
  CYP2D6 activity (% of vehicle): 85 % of vehicle

## CC[C@H](C)[C@H](NC(=O)[C@H](CCC(=O)O)NC(=O)C(C)(C)NC(=O)[C@@H](NC(=O)C1(N)CCCC1)C(C)C)C(=O)N[C@@H](CCC(N)=O)C(=O)N[C@@H](CC(C)C)C(=O)N[C@@H](CC(C)C)C(=O)N[C@@H](Cc1c[nH]cn1)C(=O)N[C@@H](CCC(N)=O)C(=O)N[C@@H](CCCCNC(=N)N)C(=O)N[C@@H](C)C(=O)N[C@H]1CNC(=O)C[C@@H](C(N)=O)NC(=O)[C@H](CC(N)=O)NC(=O)[C@H](CC(C)C)NC(=O)[C@H](Cc2c[nH]c3ccccc23)NC1=O [SEQ ID NO: 17, H-Ac5c-Val-Aib-Glu-Ile-Gln-Leu-Leu-His-Gln-Har-Ala-Dpr( )-Trp-Leu-Asn-Asp( )-NH2] (H-[Ac5c]V[Aib]EIQLLHQ[hArg]A[Dap]WLND-NH2; lactam 13-17)
Saos-2 PTH1R
  pEC50: 6.11
  Emax ± SEM: 1.25 ± 0.05
CYP2D6
  CYP2D6 activity (% of vehicle): 101 % of vehicle

## CC[C@H](C)[C@H](NC(=O)[C@H](CCC(=O)O)NC(=O)C(C)(C)NC(=O)[C@@H](NC(=O)C1(N)CCCC1)C(C)C)C(=O)N[C@@H](CCC(=O)O)C(=O)N[C@@H](CC(C)C)C(=O)N[C@@H](CCSC)C(=O)N[C@@H](Cc1c[nH]cn1)C(=O)N[C@@H](CCC(N)=O)C(=O)N[C@@H](CCCCNC(=N)N)C(=O)N[C@@H](C)C(=O)N[C@H]1CCCCNC(=O)C[C@@H](C(N)=O)NC(=O)[C@H](CC(N)=O)NC(=O)[C@H](CC(C)C)NC(=O)[C@H](Cc2c[nH]c3ccccc23)NC1=O [SEQ ID NO: 18, H-Ac5c-Val-Aib-Glu-IIe-Glu-Leu-Met-His-Gln-Har-Ala-Lys( )-Trp-Leu-Asn-Asp( )-NH2] (H-[Ac5c]V[Aib]EIELMHQ[hArg]AKWLND-NH2; lactam 13-17)
Saos-2 PTH1R
  pEC50: 7.29
  Emax ± SEM: 1.24 ± 0.29
CYP2D6
  CYP2D6 activity (% of vehicle): 89 % of vehicle

## CCCC[C@H](NC(=O)[C@H](CC(C)C)NC(=O)[C@H](CCC(N)=O)NC(=O)[C@@H](NC(=O)[C@H](CCC(=O)O)NC(=O)C(C)(C)NC(=O)[C@@H](NC(=O)C1(N)CCCC1)C(C)C)[C@@H](C)CC)C(=O)N[C@@H](Cc1c[nH]cn1)C(=O)N[C@@H](CCC(N)=O)C(=O)N[C@@H](CCCCNC(=N)N)C(=O)N[C@@H](C)C(=O)N[C@H]1CCCCNC(=O)C[C@@H](C(N)=O)NC(=O)[C@H](CC(N)=O)NC(=O)[C@H](CC(C)C)NC(=O)[C@H](Cc2c[nH]c3ccccc23)NC1=O [SEQ ID NO: 20, H-Ac5c-Val-Aib-Glu-Ile-Gln-Leu-Nle-His-Gln-Har-Ala-Lys( )-Trp-Leu-Asn-Asp( )-NH2] (H-[Ac5c]V[Aib]EIQL[Nle]HQ[hArg]AKWLND-NH2; lactam 13-17)
Saos-2 PTH1R
  pEC50: 8.10
  Emax ± SEM: 0.97 ± 0.04
CYP2D6
  CYP2D6 activity (% of vehicle): 99 % of vehicle

## CC[C@H](C)[C@H](NC(=O)[C@H](CCC(=O)O)NC(=O)C(C)(C)NC(=O)[C@@H](NC(=O)C1(N)CCCC1)C(C)C)C(=O)N[C@@H](CCC(N)=O)C(=O)N[C@@H](CC(C)C)C(=O)N[C@H](C(=O)N[C@@H](Cc1c[nH]cn1)C(=O)N[C@@H](CCC(N)=O)C(=O)N[C@@H](CCCCNC(=N)N)C(=O)N[C@@H](C)C(=O)N[C@H]1CCCCNC(=O)C[C@@H](C(N)=O)NC(=O)[C@H](CC(N)=O)NC(=O)[C@H](CC(C)C)NC(=O)[C@H](Cc2c[nH]c3ccccc23)NC1=O)C(C)C [SEQ ID NO: 21, H-Ac5c-Val-Aib-Glu-Ile-Gln-Leu-Val-His-Gln-Har-Ala-Lys( )-Trp-Leu-Asn-Asp( )-NH2] (H-[Ac5c]V[Aib]EIQLVHQ[hArg]AKWLND-NH2; lactam 13-17)
Saos-2 PTH1R
  pEC50: 6.82
  Emax ± SEM: 1.40 ± 0.27
CYP2D6
  CYP2D6 activity (% of vehicle): 92 % of vehicle

## CC[C@H](C)[C@H](NC(=O)[C@H](CCC(=O)O)NC(=O)C(C)(C)NC(=O)[C@@H](NC(=O)C1(N)CCCC1)C(C)C)C(=O)N[C@@H](CCC(N)=O)C(=O)N[C@@H](CC(C)C)C(=O)N[C@@H](CCSC)C(=O)N[C@@H](Cc1c[nH]cn1)C(=O)N[C@@H](CCC(=O)O)C(=O)N[C@@H](CCCCNC(=N)N)C(=O)N[C@@H](C)C(=O)N[C@H]1CCCCNC(=O)C[C@@H](C(N)=O)NC(=O)[C@H](CC(N)=O)NC(=O)[C@H](CC(C)C)NC(=O)[C@H](Cc2c[nH]c3ccccc23)NC1=O [SEQ ID NO: 24, H-Ac5c-Val-Aib-Glu-Ile-Gln-Leu-Met-His-Glu-Har-Ala-Lys( )-Trp-Leu-Asn-Asp( )-NH2] (H-[Ac5c]V[Aib]EIQLMHE[hArg]AKWLND-NH2; lactam 13-17)
Saos-2 PTH1R
  pEC50: 6.90
  Emax ± SEM: 1.4
CYP2D6
  CYP2D6 activity (% of vehicle): 83 % of vehicle
